The term IC50 denotes the midpoint of a concentration-inhibition curve. Read a low IC50 as greater potency in that assay.

The source of these data is BindingDB's records for patent US20230348456 (Repare Therapeutics, 2023).

Structures are written as SMILES.

In this assay the target is T1, Membrane-associated tyrosine- and threonine-specific cdc2-inhibitory kinase (Homo sapiens, UniProt Q99640).
T1 sequence (Q99640 whole entry): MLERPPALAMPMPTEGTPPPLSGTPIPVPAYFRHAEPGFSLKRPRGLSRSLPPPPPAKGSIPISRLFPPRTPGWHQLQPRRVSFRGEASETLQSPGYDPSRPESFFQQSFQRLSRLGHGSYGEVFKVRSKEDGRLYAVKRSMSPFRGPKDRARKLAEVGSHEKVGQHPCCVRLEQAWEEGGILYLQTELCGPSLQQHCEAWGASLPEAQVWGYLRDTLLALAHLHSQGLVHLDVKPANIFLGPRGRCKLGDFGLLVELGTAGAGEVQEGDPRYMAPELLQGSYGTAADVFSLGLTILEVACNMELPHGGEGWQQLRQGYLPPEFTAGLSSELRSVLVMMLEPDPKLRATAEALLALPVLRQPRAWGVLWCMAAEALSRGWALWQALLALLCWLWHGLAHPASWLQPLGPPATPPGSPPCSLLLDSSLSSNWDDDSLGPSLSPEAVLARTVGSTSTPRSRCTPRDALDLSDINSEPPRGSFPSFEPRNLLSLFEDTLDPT
The assay can be described thus: Enzymatic Assay. As for the experimental part: Detection of Myt1 kinase activity utilized a recombinant human Myt1 kinase assay measuring the hydrolysis of ATP using a commercially available ADP-Glo Assay (ADP-Glo Kinase Assay from Promega, 10 000 assays, #V9102). Briefly, 5 μL recombinant human Myt1 (full length PKMYT1 recombinant human protein expressed in insect cells from Thermo Fisher #A33387; 80% purity) was prepared in reaction buffer (70 mM HEPES, 3 mM MgCl2, 3 mM MnCl2, 50 μg/ml PEG 20000, 3 μM Na-orthovanadate, 1.2 mM DTT) and added to 384 well white polystyrene, flat bottom well, non-treated, microplate (Corning #3572). After this, 5 μL of compounds (diluted in reaction buffer to 0.5% DMSO) was added to the microplate and the plate was spun briefly and incubated at 22 C. for 15 minutes. Ultra-Pure Adenosine Triphosphate (ATP) solution (ADP-Glo kit from Promega) was diluted in reaction buffer and 5 μL was added to the microplate, spun down briefly and incubated for 60 minutes at 30 C. The final Myt1 enzyme concentration was 18 nM and the final ATP concentration was 10 μM. After the 60-minute incubation, 15 μL of ADP-Glo reagent was added and the plate was spun briefly and sealed and incubated in the dark for 40 minutes at 22 C. Following this, 30 μL of kinase detection reagent was added per well and the plate was spun briefly, sealed and incubated for 45-60 minutes at 22 C. in the dark. Luminescence was read using the Envision (250 ms integration). T
The compound `Nc1ccc(-c2nc3c(Br)cc(-c4cccc5[nH]ncc45)c(N)c3c(=O)[nH]2)cn1` [US20230348456, Compound 7] came in with a half-maximal inhibitory concentration (IC50) of 4 nM.

`Nc1c(-c2cccc3[nH]ncc23)cc(Br)c2nc(-c3ccc(N4CCC5(CC4)COC5)nc3)[nH]c(=O)c12` [US20230348456, Compound 34] showed an IC50 of 10 nM. This IC50 is about 2.5-fold higher than that of the compound before.

`Nc1c(-c2cccc3[nH]ncc23)cc(-c2nccs2)c2nc(-c3ccc(CN4CCOCC4)cc3)[nH]c(=O)c12` [US20230348456, Compound 39] returned an IC50 of 8 nM.

`Nc1c(-c2cccc3[nH]ncc23)cc(-c2cccc(OC3CCOCC3)c2)c2nc(-c3ccncc3)[nH]c(=O)c12` [US20230348456, Compound 65] came in with an IC50 of 4 nM. This IC50 lies about 2-fold lower than the previous one.

On to `Nc1c(-c2cccc3[nH]ncc23)cc(-n2cccn2)c2nc(-c3ccncc3)[nH]c(=O)c12` [US20230348456, Compound 77], for which the IC50 is 4 nM. In other words, the single-digit nanomolar range.
